Numbered stars: 1 amine (or outer) side, 2 acyl side, 3 side chain; on linkers, the order of the positions; unused ones are H or OH. Square brackets hold non-standard residues; d marks the D form. Peptide text beside a SMILES is read from it. * marks the point of attachment. ξ: configuration not given here. X1 = N=C1NCC(C(O)C(N[*:1])C(=O)[*:2])N1C1OC(CO)C(O)C(O)C1O; ξEnduracididine(βξ-OH,4'ξ) = N=C1NCC(C(O)C(N)C(=O)O)N1; X2 = OCC1OC(OC2C(CO)OC(*)C(O)C2O)C(O)C(O)C1O; ξPhe(βξ-Me) = CC(c1ccccc1)C(N)C(=O)O
Assays:
Test in all cases: in vitro antibacterial activity, agar dilution method (MIC)
Assay type in all cases: cell-based
Set-up in all cases: unit not given here
Conditions in all cases: Mueller-Hinton agar containing 5% sheep blood, 18 hours incubation
[1] = test system: Bacillus subtilis (Bacto)
Protocol: (§1) The in vitro antibacterial activity of substantially pure glycopeptide antibiotics AC-98-1, AC-98-2, AC-98-3, AC-98-4, and AC-98-5 from Examples 2 and 3 is determined against a spectrum of bacteria by a standard agar dilution method. Mueller-Hinton agar containing 5% sheep blood and two-fold decreasing concentrations of substantially pure glycopeptide antibiotics AC-98-1, AC-98-2, AC-98-3, AC-98-4, and AC-98-5 from Examples 2 and 3 are poured into petri dishes. The agar surfaces are inoculated with 1 to 5 X 10^4 colony forming units of bacteria by means of a Steers replicating device. The lowest concentration of antibiotic that inhibited the growth of a bacterial strain after 18 hours incubation is recorded as the minimal inhibitory concentration for that strain. Table II. In vitro antibacterial activity of substantially pure antibiotics AC-98-1, AC-98-2, AC-98-3, AC-98-4, and AC-98-5 from Examples 2 and 3

[2] = test system: Morganella morganii (VGH 84-11)
Protocol: as §1

[3] = test system: Enterococcus faecalis (ID-1829)
Protocol: as §1

[4] = test system: Staphylococcus aureus (ATCC 29213)
Protocol: as §1

[5] = test system: Staphylococcus aureus (ID-3105)
Protocol: as §1

[6] = test system: Enterococcus faecium (12202)
Protocol: as §1

[7] = test system: Enterococcus faecium (ID-4133)
Protocol: as §1

[8] = test system: Staphylococcus aureus (ID-2371)
Protocol: as §1

[9] = test system: Staph Coagulase Neg (ID-3276)
Protocol: as §1

[10] = test system: Enterococcus faecium (ID-3301)
Protocol: as §1

[11] = test system: Staphylococcus aureus (ID-2727)
Protocol: as §1

[12] = test system: Staphylococcus aureus (SMITH)
Protocol: as §1

[13] = test system: Staphylococcus hemolyticus (ID-4061)
Protocol: as §1

[14] = test system: Enterococcus faecalis (ATCC 29212)
Protocol: as §1

[15] = test system: Enterococcus faecalis (ID-2131)
Protocol: as §1

[16] = test system: Staphylococcus aureus (ID-4379)
Protocol: as §1

[17] = test system: Pseudomonas aeruginosa (ATCC 27853)
Protocol: as §1

[18] = test system: Staphylococcus aureus (NEMC-89-4)
Protocol: as §1

[19] = test system: Enterococcus faecium (ID-3953)
Protocol: as §1

[20] = test system: Staph Coagulase Neg (4615)
Protocol: as §1

Escherichia coli (J2175) = test system: Escherichia coli (J2175)
Protocol: as §1

| MIC [1] | MIC [2] | MIC [3] | MIC [6] | MIC [8] | MIC [10] | MIC [14] | MIC [15] | MIC [17] | MIC [19] | MIC [20] | SMILES | also measured |
| --- | --- | --- | --- | --- | --- | --- | --- | --- | --- | --- | --- | --- |
| >128 | >128 | >128 | >128 | >128 | >128 | >128 | >128 | >128 | >128 | >128 | CC(c1ccccc1)C1NC(=O)CNC(=O)C(CO)NC(=O)C(C(O)C2CNC(=N)N2C2OC(CO)C(O)C(O)C2O)NC(=O)C(C(O)C2CNC(=N)N2)NC(=O)C(Cc2ccc(OC3OC(CO)C(OC4OC(CO)C(O)C(O)C4O)C(O)C3O)cc2)NC1=O (stereo not drawn) [AC-98-1] (cyclo(G[ξPhe(βξ-Me)]Y(X2)[ξEnduracididine(βξ-OH,4'ξ)][X1]S); configuration not given here) | MIC [4]: 128; MIC [5]: 128; MIC [7]: 128; MIC [9]: 128; MIC [11]: >128; MIC [12]: 128; MIC [13]: 128; MIC [16]: 128; MIC [18]: >128 |
| >128 | >128 | 128 | 128 | 128 | >128 | >128 | >128 | >128 | 128 | 128 | CC(c1ccccc1)C1NC(=O)CNC(=O)C(CO)NC(=O)C(C(O)C2CNC(=N)N2C2OC(CO)C(O)C(O)C2O)NC(=O)C(C(O)C2CNC(=N)N2)NC(=O)C(Cc2ccc(O)cc2)NC1=O (stereo not drawn) [AC-98-2] (cyclo(G[ξPhe(βξ-Me)]Y[ξEnduracididine(βξ-OH,4'ξ)][X1]S); configuration not given here) |  |
|  | >128 |  |  |  |  |  | 128 | >128 |  |  | CC(C)CC(=O)OC1C(OC2C(CO)OC(Oc3ccc(CC4NC(=O)C(C(C)c5ccccc5)NC(=O)CNC(=O)C(CO)NC(=O)C(C(O)C5CNC(=N)N5C5OC(CO)C(O)C(O)C5O)NC(=O)C(C(O)C5CNC(=N)N5)NC4=O)cc3)C(O)C2O)OC(CO)C(O)C1O (stereo not drawn) [AC-98-3] |  |
|  | >128 |  |  |  |  |  |  | >128 |  |  | CC(C)CC(=O)OC1C(CO)OC(OC2C(CO)OC(Oc3ccc(CC4NC(=O)C(C(C)c5ccccc5)NC(=O)CNC(=O)C(CO)NC(=O)C(C(O)C5CNC(=N)N5C5OC(CO)C(O)C(O)C5O)NC(=O)C(C(O)C5CNC(=N)N5)NC4=O)cc3)C(O)C2O)C(O)C1O (stereo not drawn) [AC-98-5] |  |

| SMILES | MIC [1] | MIC [2] | MIC [3] | MIC [6] | MIC [8] | MIC [10] | MIC [14] | MIC [15] | MIC [17] | MIC [19] | MIC [20] | also measured |
| --- | --- | --- | --- | --- | --- | --- | --- | --- | --- | --- | --- | --- |
| CC(C)CC(=O)OC1C(O)C(CO)OC(OC2C(CO)OC(Oc3ccc(CC4NC(=O)C(C(C)c5ccccc5)NC(=O)CNC(=O)C(CO)NC(=O)C(C(O)C5CNC(=N)N5C5OC(CO)C(O)C(O)C5O)NC(=O)C(C(O)C5CNC(=N)N5)NC4=O)cc3)C(O)C2O)C1O (stereo not drawn) [AC-98-4] |  | >128 |  |  |  |  |  |  | >128 |  |  | MIC (Escherichia coli (J2175)): 128 |
